# What was measured:
# Type in all cases: physicochemical
# [1] = Simulated Y-site compatibility: pH by potentiometric meter
# Experimental: (§1) The acceptance criteria of “no incompatibility indicating change” over the four hour evaluation period is being applied to the Appearance and Description assay as well as the HIAC subvisible particulate assay. […] In addition to the Appearance and Description and HIAC testing, the pH of the solutions are monitored “for information only.” Before mixing of the two test solutions together; Appearance and Description, HIAC subvisible particulate testing, and pH are determined on each as controls.
# (§2) Testing of Controls • 1. […] The remaining volumes of the two test articles are used immediately.
# (§3) Preparation and Testing of Combined Solutions • 1. […] Approximately 30 ml of the combined solution is immediately removed for 0 hour Appearance and Description, subvisible particulates by HIAC and pH testing. The beaker with the remaining solution is then recovered with Parafilm and the headspace flushed with nitrogen. • 2. The sampling and testing of 30 ml aliquots is repeated after one and four hours.
# pH is measured using a potentiometric meter capable of measuring pH values reproducibly within 0.02 pH units and having electrodes suitable for pH meter use.
# (§4) All drug products are prepared per package insert directions; some drugs having wide therapeutic ranges are tested at multiple concentrations, and some drugs with different formulations are tested. A simulation of the mixing which would occur at an intravenous administration set Y-site is used, and the period for evaluation of compatibility exaggerated the generally short time that the two agents would be together prior to venous circulation. Test solutions before and after mixing are measured by visual observation, by light obscuration for subvisible particulates (HIAC), and by potentiometry over a four hour period.
# [2] = Simulated Y-site compatibility: subvisible particulates by light obscuration (HIAC, USP 788); conditions: for HIAC ≧10 μm / HIAC ≧25 μm: each solution before mixing, 0 Hours; for Subvisible Particulates (HIAC) ≧10 μm / Subvisible Particulates (HIAC) ≧25 μm: each before mixing, 0 hours
# Source text: Sub-visible particulate formation may be measured by light obscuration (HIAC) as per United States Pharmacopeia USP Chapter 788 Particulate Matter in Injections.
# This time period has become standard when performing these “simulated Y-site” studies, although the actual residence time for the two solutions in the administration set may not exceed eight minutes prior to entering the venous system.
# The acceptance criteria of “no incompatibility indicating change” over the four hour evaluation period is being applied to the Appearance and Description assay as well as the HIAC subvisible particulate assay. Thus, for instance, formation of visible particulates or increase of subvisible particulates would indicate an incompatibility and would result in a “Y-site incompatible” classification for that diluent or drug. In addition to the Appearance and Description and HIAC testing, the pH of the solutions are monitored “for information only.” Before mixing of the two test solutions together; Appearance and Description, HIAC subvisible particulate testing, and pH are determined on each as controls.
# as §2, §3
# The following tests are performed immediately after sampling: • 1. Appearance and Description for color, visible particulates, and turbidity measured using a Black and White background light box with a fluorescent lamp capable of producing intensity of illumination between 2000 and 3750 lux. • 2. Sub visible particulates are measured by light obscuration (HIAC) as per United States Pharmacopeia USP Chapter 788 Particulate Matter in Injections.
# as §4
# [3] = Compatibility of tigecycline with heparin (simulated Y-site study, overall finding); conditions: common point of administration, e.g. Y-site, without saline flush
# Experimental: A study is performed to determine the compatibility of tigecycline solutions with heparin. Heparin is prepared for this study as per the directions given in the package insert. The compatibility testing is performed using a “simulated Y-site” technique developed and published by Trissel et. al. “Compatibility of Fenoldopam Mesylate with other Drugs during Simulated Y-site Administration, Am. J. Health-System Pharmacy, Vol. 60, 80-85, 2003; Trissel, et. al. “Physical Compatibility of Antithymocyte Globulin (Rabbit) with Heparin Sodium and Hydrocortisone Sodium, Vol. 60, 1650-1652, 2003; Trissel et. al. “Compatibility Screening of Bivalirudin during Simulated Y-site Administration with Other Drugs, and Trissel et. al. “Compatibility of piperacillin sodium plus tazobactum with selected drugs during simulated Y-site injection, Am. J. Hosp. Pharm., Vol. 51, 672-678, 1994. […]
# as §1
# [4] = Compatibility classification of intravenous diluents and drugs under simulated Y-site conditions with Tigecycline for Injection; conditions: Dobutamine final concentration 1.0 mg/ml, mixed with Tigecycline for Injection, four hour period
# Experimental: as §4
# [5] = Table 4: Tigecycline and Dobutamine solutions, each before mixing, 0 hours
# [6] = Table 5: Tigecycline and Dopamine solutions, each before mixing, 0 hours
# [7] = Table 1: Tigecycline 1 mg/mL in NS, Heparin 10 Units/ml in NS
# [8] = Table 2: Tigecycline 1 mg/mL in NS, Heparin 100 Units/ml in NS
# [9] = Table 4: Tigecycline and Dobutamine solutions
# [10] = Table 5: Tigecycline and Dopamine solutions
# [11] = Table 6: Tigecycline and Chlorpromazine solutions
"pH ([1]; Table 2: Tigecycline 1 mg/mL in NS, Heparin 100 Units/ml in NS, each solution before mixing, 0 Hours)","pH [1, 5]","pH [1, 6]","HIAC ≧10 μm [2, 7]","HIAC ≧25 μm [2, 7]","HIAC ≧10 μm [2, 8]","HIAC ≧25 μm [2, 8]","Subvisible Particulates (HIAC) ≧10 μm [2, 9]","Subvisible Particulates (HIAC) ≧25 μm [2, 9]","Subvisible Particulates (HIAC) ≧10 μm [2, 10]","Subvisible Particulates (HIAC) ≧25 μm [2, 10]","Subvisible Particulates (HIAC) ≧10 μm [2, 11]","Subvisible Particulates (HIAC) ≧25 μm [2, 11]",compatibility with the administration of heparin [3],Compatibility Classification [4],"pH ([1]; Table 6: Tigecycline and Chlorpromazine solutions, each before mixing, 0 hours)",SMILES
7.82,7.81,7.84,39.3 particles/mL,1.4 particles/mL,69.1 particles/mL,6.2 particles/mL,35.8 particles/ml,0.9 particles/ml,82.3 particles/ml,2.2 particles/ml,27.4 particles/ml,1.3 particles/ml,compatible,–,–,"CN(C)c1cc(NC(=O)CNC(C)(C)C)c(O)c2c1C[C@H]1C[C@H]3[C@H](N(C)C)C(O)=C(C(N)=O)C(=O)[C@@]3(O)C(O)=C1C2=O [Tigecycline, (4S,4aS,5aR,12aS)-9-[2-(tert-butylamino)acetamido]-4,7-bis(dimethylamino)-1,4,4a,5,5a,6,11,12a-octahydro-3,10,12,12a-tetrahydroxy-1,11-dioxo-2-naphthacenecarboxamide]"
–,4.18,–,–,–,–,–,5.9 particles/ml,0.6 particles/ml,–,–,–,–,–,Compatible,–,"CC(CCc1ccc(O)cc1)NCCc1ccc(O)c(O)c1 (stereo not drawn) [Dobutamine, reference compound]"
–,–,–,–,–,–,–,–,–,–,–,21.9 particles/ml,2.9 particles/ml,–,–,4.61,"CN(C)CCCN1c2ccccc2Sc2ccc(Cl)cc21 [Chlorpromazine, reference compound]"
–,–,3.59,–,–,–,–,–,–,3.1 particles/ml,0.1 particles/ml,–,–,–,–,–,"NCCc1ccc(O)c(O)c1 [Dopamine, reference compound]"

# — patent US20060251705A1 (Wyeth, priority 2005, published 2006)
